Experimental data: patent US20230329282A1, “Application of 1-Deoxynojirimycin in Feed for Improving Nutritional Value and Sensory Effect of Rabbit Meat Products” (priority 2023, published 2023)
Marks after values point to notes of the source that are not given here.

Tests used:
[1] = test system: New Zealand white rabbits; assay: Fatty acid composition of rabbit meat by GC/MS; format: in vivo; conditions: 28 d
Text: The single-factor completely randomized test design is adopted. 36 45-day-old healthy New Zealand white rabbits (male) with the average weight of (1.05±0.04) kg are selected and randomly divided into 3 groups, and each group has 12 replicates with 1 rabbit per replicate. A control group is fed with a basal diet, an L-DNJ group is fed with the basal diet+0.14 g/kg DNJ, and an H-DNJ group is fed with the basal diet+0.28 g/kg DNJ. The diet is uniformly mixed to be prepared into cylindrical particles with the diameter of 6 mm and the length of 1 cm. The preliminary trial period is 14 d, and the trial period is 28 d. 10 g of meat sample is crushed, total fat is extracted after freeze-drying and converted to fatty acid methyl ester using a mixture of boron trifluoride, hexane and methanol (35:20:45 v/v), and then the fatty acid composition and content are measured with a gas chromatograph-mass spectrometer GC/MS (Model 7890-5975, Agilent Technologies, Inc.) with a 60 m×0.25 mm×0.25 μm capillary column. Gas chromatographic conditions are set as follows: the injector temperature is 220° C., and the detector temperature is 275° C.; and the initial column chamber temperature is 140° C. for 5 min, then increased to 240° C. at a rate of 4° C./min and maintained at 240° C. for 15 min. Finally, the fatty acid is measured with a […]. The ionization energy is 70 eV, the ion source temperature is 200° C., and the scanning range is 50-500 m/z. The retention time of each peak in the chromatogram is compared with that of a mixed standard of 37 fatty acid methyl esters (B25881, Shanghai Yuanye Bio-technology Co., Ltd.) to determine the properties of each peak. Three measurements are made for each sample, and the results are averaged.

[2] = test system: New Zealand white rabbits; assay: Nutritional ingredients of muscle (moisture, crude protein, ether extract); format: in vivo; conditions: 28 d
Text: The single-factor completely randomized test design is adopted. 36 45-day-old healthy New Zealand white rabbits (male) with the average weight of (1.05±0.04) kg are selected and randomly divided into 3 groups, and each group has 12 replicates with 1 rabbit per replicate. A control group is fed with a basal diet, an L-DNJ group is fed with the basal diet+0.14 g/kg DNJ, and an H-DNJ group is fed with the basal diet+0.28 g/kg DNJ. The diet is uniformly mixed to be prepared into cylindrical particles with the diameter of 6 mm and the length of 1 cm. The preliminary trial period is 14 d, and the trial period is 28 d.
The rabbits are deprived of food (but not water) on the night of the end of the experiment, and after weighing in the next morning, 8 rabbits with similar weight are selected from each group and slaughtered. The longissimus dorsi muscles of the rabbits are collected, the pH values of the front, middle and back parts of the longissimus dorsi muscle are measured with a pH meter (Bante221, Shanghai Bante Instrument Co., Ltd.) having the function of automatic temperature compensation and then measured again after standing at room temperature for 24 h, and the pH decreased values of the muscle within 24 h are calculated. The pH value is the average value of the three readings. The meat color (L*, α*, b*) is measured with a TC-PIIG automatic color difference meter (Beijing Aoyike Photoelectric Instrument Co., Ltd.) on the muscle surface. The detection light source is D65 according to CIE laboratory standards, and the measurement area is 8 mm in diameter. The average value is obtained by making three measurements at each detection point.
The contents of moisture, crude protein and ether extract in the muscle are measured according to the method proposed by Zhang Liying (Zhang Liying. Feed analysis and feed quality inspection technology [M]. 4th Ed. Beijing: China Agricultural University Press, 2016).

[3] = H-DNJ: basal diet+0.28 g/kg DNJ
[4] = L-DNJ: basal diet+0.14 g/kg DNJ

SMILES: OC[C@H]1NC[C@H](O)[C@@H](O)[C@@H]1O [DNJ, 1-deoxynojirimycin]
- MUFA C16:1n7c in rabbit meat [1, 3]: 2.06%
- MUFA C16:1n9c in rabbit meat [1, 3]: 0.42%
- MUFA C17:1n7c in rabbit meat [1, 3]: 0.21%
- MUFA C18:1n9c in rabbit meat [1, 3]: 23.01ª %
- MUFA C18:1n9t in rabbit meat [1, 3]: 2.86ª %
- MUFA C20:1n9t in rabbit meat [1, 3]: 0.24^a %
- Monounsaturated fatty acid (MUFA) total [1, 3]: 27.13%
- PUFA C16:3n4c in rabbit meat [1, 3]: 0.19ª %
- PUFA C18:2n6c (linoleic acid) in rabbit meat [1, 3]: 31.77ª %
- PUFA C20:2n6c in rabbit meat [1, 3]: 0.57^ab %
- PUFA C20:3n6c in rabbit meat [1, 3]: 0.43%
- PUFA C20:4n6c (arachidonic acid) in rabbit meat [1, 3]: 2.67ª %
- PUFA C22:4n6c in rabbit meat [1, 3]: 0.31%
- PUFA C22:5n6c (DPA) in rabbit meat [1, 3]: 0.13%
- Polyunsaturated fatty acid (PUFA) total [1, 3]: 36.07ª %
- SFA 9Methyl C14:0 in rabbit meat [1, 3]: 0.07%
- SFA 12Methyl C13:0 in rabbit meat [1, 3]: 0.14^b %
- SFA 13Methyl C14:0 in rabbit meat [1, 3]: 0.13ª %
- SFA 14Methyl C15:0 in rabbit meat [1, 3]: 0.26%
- SFA 14methyl C16:0 in rabbit meat [1, 3]: 0.10%
- SFA C10:0 in rabbit meat [1, 3]: 0.25%
- SFA C12:0 in rabbit meat [1, 3]: 0.92^b %
- SFA C14:0 in rabbit meat [1, 3]: 2.14%
- SFA C15:0 in rabbit meat [1, 3]: 0.53%
- SFA C16:0 in rabbit meat [1, 3]: 26.52^b %
- SFA C17:0 in rabbit meat [1, 3]: 0.52ª %
- SFA C18:0 in rabbit meat [1, 3]: 5.11^b %
- SFA C20:0 in rabbit meat [1, 3]: 0.11%
- Saturated fatty acid (SFA) total [1, 3]: 36.75^b %
- Unsaturated fatty acid (UFA) total [1, 3]: 63.20ª %
- MUFA C16:1n7c in rabbit meat [1, 4]: 1.89%
- MUFA C16:1n9c in rabbit meat [1, 4]: 0.51%
- MUFA C17:1n7c in rabbit meat [1, 4]: 0.22%
- MUFA C18:1n9c in rabbit meat [1, 4]: 20.60^b %
- MUFA C18:1n9t in rabbit meat [1, 4]: 1.08^b %
- MUFA C20:1n9t in rabbit meat [1, 4]: 0.16^b %
- Monounsaturated fatty acid (MUFA) total [1, 4]: 24.45%
- PUFA C16:3n4c in rabbit meat [1, 4]: 0.13^b %
- PUFA C18:2n6c (linoleic acid) in rabbit meat [1, 4]: 28.40^b %
- PUFA C20:2n6c in rabbit meat [1, 4]: 0.44^b %
- PUFA C20:3n6c in rabbit meat [1, 4]: 0.15%
- PUFA C20:4n6c (arachidonic acid) in rabbit meat [1, 4]: 1.61^b %
- PUFA C22:4n6c in rabbit meat [1, 4]: 0.39%
- Polyunsaturated fatty acid (PUFA) total [1, 4]: 31.12^b %
- SFA 9Methyl C14:0 in rabbit meat [1, 4]: 0.06%
- SFA 12Methyl C13:0 in rabbit meat [1, 4]: 0.30^a %
- SFA 13Methyl C14:0 in rabbit meat [1, 4]: 0.12ª %
- SFA 14Methyl C15:0 in rabbit meat [1, 4]: 0.27%
- SFA 14methyl C16:0 in rabbit meat [1, 4]: 0.11%
- SFA C10:0 in rabbit meat [1, 4]: 0.20%
- SFA C12:0 in rabbit meat [1, 4]: 1.71ª %
- SFA C14:0 in rabbit meat [1, 4]: 2.16%
- SFA C15:0 in rabbit meat [1, 4]: 0.52%
- SFA C16:0 in rabbit meat [1, 4]: 30.16ª %
- SFA C17:0 in rabbit meat [1, 4]: 0.46^b %
- SFA C18:0 in rabbit meat [1, 4]: 8.22ª %
- SFA C20:0 in rabbit meat [1, 4]: 0.11%
- Saturated fatty acid (SFA) total [1, 4]: 44.48ª %
- Unsaturated fatty acid (UFA) total [1, 4]: 55.57^b %
- Nutritional ingredient of muscle: Crude protein (CP) [2, 3]: 22.18
- Nutritional ingredient of muscle: Ether extract (EE) [2, 3]: 0.60^c
- Nutritional ingredient of muscle: Moisture [2, 3]: 75.20
- Nutritional ingredient of muscle: Crude protein (CP) [2, 4]: 22.09
- Nutritional ingredient of muscle: Ether extract (EE) [2, 4]: 2.50^b
- Nutritional ingredient of muscle: Moisture [2, 4]: 75.93
